Reference: patent publication US20080051387A1, “TETRAHYDROPYRIDO[3,4-D]PYRIMIDINES AND RELATED ANALOGUES” (priority 2006, published 2008)

Each compound was assayed against T1, chimeric human H3 receptor (Homo sapiens, UniProt Q9Y5N1) (assay: Chimeric human H3 receptor screening GTP binding assay (inhibition of histamine-stimulated GTP-gamma35S binding, Example 8)). Details: 1 h; assay described in Example 8; symbol "!" in column headed Ki; read-out: Ki ("!": percent inhibition of agonist-induced GTP-gammaS binding to H3).
T1 construct: rat Galpha-i2 (Gnai2, rat); made in house; host or cells: Sf9 insect cells (baculovirus); P2 membranes
T1 sequence (Q9Y5N1 with tags, fused parts or gaps): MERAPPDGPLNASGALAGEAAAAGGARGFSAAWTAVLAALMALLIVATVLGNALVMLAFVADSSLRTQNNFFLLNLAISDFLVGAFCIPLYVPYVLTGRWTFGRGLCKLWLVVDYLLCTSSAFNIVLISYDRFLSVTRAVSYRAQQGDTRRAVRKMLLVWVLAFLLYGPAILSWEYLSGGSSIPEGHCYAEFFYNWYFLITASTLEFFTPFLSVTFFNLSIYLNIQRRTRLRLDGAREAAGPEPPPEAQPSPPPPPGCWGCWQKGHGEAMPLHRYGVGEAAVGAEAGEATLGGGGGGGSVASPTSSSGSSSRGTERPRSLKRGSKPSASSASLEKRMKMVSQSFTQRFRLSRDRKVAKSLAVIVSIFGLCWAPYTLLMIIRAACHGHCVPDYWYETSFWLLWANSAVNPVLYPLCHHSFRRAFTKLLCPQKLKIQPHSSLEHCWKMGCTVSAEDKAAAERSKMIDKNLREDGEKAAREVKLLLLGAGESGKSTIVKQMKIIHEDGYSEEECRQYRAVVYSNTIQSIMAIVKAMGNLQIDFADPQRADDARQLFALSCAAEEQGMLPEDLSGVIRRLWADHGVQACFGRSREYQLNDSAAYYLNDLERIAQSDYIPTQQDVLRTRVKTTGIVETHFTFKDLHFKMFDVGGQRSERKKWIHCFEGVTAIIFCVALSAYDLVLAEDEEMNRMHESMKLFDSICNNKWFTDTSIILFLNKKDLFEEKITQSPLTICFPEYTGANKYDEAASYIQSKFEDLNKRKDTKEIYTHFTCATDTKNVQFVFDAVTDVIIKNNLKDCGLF
Format: biochemical
How it was run: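 Sf9 membranes co-expressing chimeric human H3 receptor and heterotrimeric G-protein (35 μg protein) incubated 60 min at room temperature with 4 μM compound, 1 μM histamine and 125 pM GTP-gamma35S in pH 7.4 buffer with 10 μM GDP. Filter-bound radioactivity, nonspecific (10 μM GTP-gammaS) subtracted, reported as % inhibition of histamine signal.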

| Compound | inhibition at 4 µM |
| --- | --- |
| Nc1ccc(C(=O)N2CCc3cnc(N4CCN(C5CCC5)CC4)nc3CC2)cc1 [Compound 533, 4-{[2-(4-cyclobutylpiperazin-1-yl)-5,6,8,9-tetrahydro-7H-pyrimido[4,5-d]azepin-7-yl]carbonyl}aniline] | ≥ 90% |
| CNc1ccccc1C(=O)N1CCc2cnc(N3CCN(C4CCC4)CC3)nc2CC1 [Compound 534, 2-{[2-(4-cyclobutylpiperazin-1-yl)-5,6,8,9-tetrahydro-7H-pyrimido[4,5-d]azepin-7-yl]carbonyl}-N-methylaniline] | ≥ 90% |
| CNc1ccc(C(=O)N2CCc3cnc(N4CCN(C5CCC5)CC4)nc3CC2)cc1 [Compound 535, 4-{[2-(4-cyclobutylpiperazin-1-yl)-5,6,8,9-tetrahydro-7H-pyrimido[4,5-d]azepin-7-yl]carbonyl}-N-methylaniline] | ≥ 90% |
| Nc1ccc(Cl)cc1C(=O)N1CCc2cnc(N3CCN(C4CCC4)CC3)nc2CC1 [Compound 536, 4-chloro-2-{[2-(4-cyclobutylpiperazin-1-yl)-5,6,8,9-tetrahydro-7H-pyrimido[4,5-d]azepin-7-yl]carbonyl}aniline] | ≥ 90% |
| Cc1cccc(C(=O)N2CCc3cnc(N4CCN(C5CCC5)CC4)nc3CC2)c1N [Compound 537, 2-{[2-(4-cyclobutylpiperazin-1-yl)-5,6,8,9-tetrahydro-7H-pyrimido[4,5-d]azepin-7-yl]carbonyl}-6-methylaniline] | ≥ 90% |
| Cc1c(N)cccc1C(=O)N1CCc2cnc(N3CCN(C4CCC4)CC3)nc2CC1 [Compound 538, 3-{[2-(4-cyclobutylpiperazin-1-yl)-5,6,8,9-tetrahydro-7H-pyrimido[4,5-d]azepin-7-yl]carbonyl}-2-methylaniline] | ≥ 90% |
| Cc1ccc(N)c(C(=O)N2CCc3cnc(N4CCN(C5CCC5)CC4)nc3CC2)c1 [Compound 539, 2-{[2-(4-cyclobutylpiperazin-1-yl)-5,6,8,9-tetrahydro-7H-pyrimido[4,5-d]azepin-7-yl]carbonyl}-4-methylaniline] | ≥ 90% |
| Nc1cc(Cl)ccc1C(=O)N1CCc2cnc(N3CCN(C4CCC4)CC3)nc2CC1 [Compound 540, 5-chloro-2-{[2-(4-cyclobutylpiperazin-1-yl)-5,6,8,9-tetrahydro-7H-pyrimido[4,5-d]azepin-7-yl]carbonyl}aniline] | ≥ 90% |
| CCCSc1ncccc1C(=O)N1CCc2cnc(N3CCN(C4CCC4)CC3)nc2CC1 [Compound 541, 2-(4-cyclobutylpiperazin-1-yl)-7-{[2-(propylthio)pyridin-3-yl]carbonyl}-6,7,8,9-tetrahydro-5H-pyrimido[4,5-d]azepine] | ≥ 90% |
| COc1ccc(C(=O)N2CCc3cnc(N4CCN(C5CCC5)CC4)nc3CC2)c(OC)n1 [Compound 542, 2-(4-cyclobutylpiperazin-1-yl)-7-[(2,6-dimethoxypyridin-3-yl)carbonyl]-6,7,8,9-tetrahydro-5H-pyrimido[4,5-d]azepine] | ≥ 90% |
| CCOc1ncccc1C(=O)N1CCc2cnc(N3CCN(C4CCC4)CC3)nc2CC1 [Compound 543, 2-(4-cyclobutylpiperazin-1-yl)-7-[(2-ethoxypyridin-3-yl)carbonyl]-6,7,8,9-tetrahydro-5H-pyrimido[4,5-d]azepine] | ≥ 90% |
| COc1ncc(Cl)cc1C(=O)N1CCc2cnc(N3CCN(C4CCC4)CC3)nc2CC1 [Compound 544, 7-[(5-chloro-2-methoxypyridin-3-yl)carbonyl]-2-(4-cyclobutylpiperazin-1-yl)-6,7,8,9-tetrahydro-5H-pyrimido[4,5-d]azepine] | ≥ 90% |
| CCCOc1ncccc1C(=O)N1CCc2cnc(N3CCN(C4CCC4)CC3)nc2CC1 [Compound 545, 2-(4-cyclobutylpiperazin-1-yl)-7-[(2-propoxypyridin-3-yl)carbonyl]-6,7,8,9-tetrahydro-5H-pyrimido[4,5-d]azepine] | ≥ 90% |

Now from value to compound:

| inhibition at 4 µM | Compound |
| --- | --- |
| ≥ 90% | CC(C)Oc1ncccc1C(=O)N1CCc2cnc(N3CCN(C4CCC4)CC3)nc2CC1 [Compound 546, 2-(4-cyclobutylpiperazin-1-yl)-7-[(2-isopropoxypyridin-3-yl)carbonyl]-6,7,8,9-tetrahydro-5H-pyrimido[4,5-d]azepine] |
| ≥ 90% | O=C(/C=C/c1ccccc1F)N1CCc2cnc(N3CCN(C4CCC4)CC3)nc2CC1 [Compound 547, 2-(4-cyclobutylpiperazin-1-yl)-7-[(2E)-3-(2-fluorophenyl)prop-2-enoyl]-6,7,8,9-tetrahydro-5H-pyrimido[4,5-d]azepine] |
| ≥ 90% | O=C(/C=C/c1ccc(F)cc1)N1CCc2cnc(N3CCN(C4CCC4)CC3)nc2CC1 [Compound 548, 2-(4-cyclobutylpiperazin-1-yl)-7-[(2E)-3-(4-fluorophenyl)prop-2-enoyl]-6,7,8,9-tetrahydro-5H-pyrimido[4,5-d]azepine] |
| ≥ 90% | O=C(/C=C/c1ccc(Cl)cc1)N1CCc2cnc(N3CCN(C4CCC4)CC3)nc2CC1 [Compound 549, 7-[(2E)-3-(4-chlorophenyl)prop-2-enoyl]-2-(4-cyclobutylpiperazin-1-yl)-6,7,8,9-tetrahydro-5H-pyrimido[4,5-d]azepine] |
| ≥ 90% | O=C(/C=C/c1ccc(C(F)(F)F)cc1)N1CCc2cnc(N3CCN(C4CCC4)CC3)nc2CC1 [Compound 550, 2-(4-cyclobutylpiperazin-1-yl)-7-{(2E)-3-[4-(trifluoromethyl)phenyl]prop-2-enoyl}-6,7,8,9-tetrahydro-5H-pyrimido[4,5-d]azepine] |
| ≥ 90% | O=C(/C=C/c1ccc(Cl)c(Cl)c1)N1CCc2cnc(N3CCN(C4CCC4)CC3)nc2CC1 [Compound 551, 2-(4-cyclobutylpiperazin-1-yl)-7-[(2E)-3-(3,4-dichlorophenyl)prop-2-enoyl]-6,7,8,9-tetrahydro-5H-pyrimido[4,5-d]azepine] |
| ≥ 90% | O=C(/C=C/c1cccc(Cl)c1)N1CCc2cnc(N3CCN(C4CCC4)CC3)nc2CC1 [Compound 552, 7-[(2E)-3-(3-chlorophenyl)prop-2-enoyl]-2-(4-cyclobutylpiperazin-1-yl)-6,7,8,9-tetrahydro-5H-pyrimido[4,5-d]azepine] |
| ≥ 90% | O=C(/C=C/c1cccc(F)c1)N1CCc2cnc(N3CCN(C4CCC4)CC3)nc2CC1 [Compound 553, 2-(4-cyclobutylpiperazin-1-yl)-7-[(2E)-3-(3-fluorophenyl)prop-2-enoyl]-6,7,8,9-tetrahydro-5H-pyrimido[4,5-d]azepine] |
| ≥ 90% | O=C(/C=C/c1cccc(F)c1F)N1CCc2cnc(N3CCN(C4CCC4)CC3)nc2CC1 [Compound 554, 2-(4-cyclobutylpiperazin-1-yl)-7-[(2E)-3-(2,3-difluorophenyl)prop-2-enoyl]-6,7,8,9-tetrahydro-5H-pyrimido[4,5-d]azepine] |
| ≥ 90% | O=C(/C=C/c1cccc(C(F)(F)F)c1)N1CCc2cnc(N3CCN(C4CCC4)CC3)nc2CC1 [Compound 555, 2-(4-cyclobutylpiperazin-1-yl)-7-{(2E)-3-[3-(trifluoromethyl)phenyl]prop-2-enoyl}-6,7,8,9-tetrahydro-5H-pyrimido[4,5-d]azepine] |
| ≥ 90% | O=C(/C=C/c1ccc(-c2ccccc2)cc1)N1CCc2cnc(N3CCN(C4CCC4)CC3)nc2CC1 [Compound 556, 7-[(2E)-3-biphenyl-4-ylprop-2-enoyl]-2-(4-cyclobutylpiperazin-1-yl)-6,7,8,9-tetrahydro-5H-pyrimido[4,5-d]azepine] |
| ≥ 90% | Cc1ccc(/C=C/C(=O)N2CCc3cnc(N4CCN(C5CCC5)CC4)nc3CC2)cc1 [Compound 557, 2-(4-cyclobutylpiperazin-1-yl)-7-[(2E)-3-(4-methylphenyl)prop-2-enoyl]-6,7,8,9-tetrahydro-5H-pyrimido[4,5-d]azepine] |
| ≥ 90% | COc1ccc(/C=C/C(=O)N2CCc3cnc(N4CCN(C5CCC5)CC4)nc3CC2)cc1 [Compound 558, 2-(4-cyclobutylpiperazin-1-yl)-7-[(2E)-3-(4-methoxyphenyl)prop-2-enoyl]-6,7,8,9-tetrahydro-5H-pyrimido[4,5-d]azepine] |
| ≥ 90% | CC(C)c1ccc(/C=C/C(=O)N2CCc3cnc(N4CCN(C5CCC5)CC4)nc3CC2)cc1 [Compound 559, 2-(4-cyclobutylpiperazin-1-yl)-7-[(2E)-3-(4-isopropylphenyl)prop-2-enoyl]-6,7,8,9-tetrahydro-5H-pyrimido[4,5-d]azepine] |
| ≥ 90% | COc1ccc(/C=C/C(=O)N2CCc3cnc(N4CCN(C5CCC5)CC4)nc3CC2)cc1OC [Compound 560, 2-(4-cyclobutylpiperazin-1-yl)-7-[(2E)-3-(3,4-dimethoxyphenyl)prop-2-enoyl]-6,7,8,9-tetrahydro-5H-pyrimido[4,5-d]azepine] |
| ≥ 90% | COc1cc(/C=C/C(=O)N2CCc3cnc(N4CCN(C5CCC5)CC4)nc3CC2)ccc1OCc1ccccc1 [Compound 561, 7-{(2E)-3-[4-(benzyloxy)-3-methoxyphenyl]prop-2-enoyl}-2-(4-cyclobutylpiperazin-1-yl)-6,7,8,9-tetrahydro-5H-pyrimido[4,5-d]azepine] |
| ≥ 90% | O=C(/C=C/c1ccc(OCc2ccc(F)cc2)cc1)N1CCc2cnc(N3CCN(C4CCC4)CC3)nc2CC1 [Compound 562, 2-(4-cyclobutylpiperazin-1-yl)-7-[(2E)-3-{4-[(4-fluorobenzyl)oxy]phenyl}prop-2-enoyl]-6,7,8,9-tetrahydro-5H-pyrimido[4,5-d]azepine] |
| ≥ 90% | Cc1cccc(/C=C/C(=O)N2CCc3cnc(N4CCN(C5CCC5)CC4)nc3CC2)c1 [Compound 563, 2-(4-cyclobutylpiperazin-1-yl)-7-[(2E)-3-(3-methylphenyl)prop-2-enoyl]-6,7,8,9-tetrahydro-5H-pyrimido[4,5-d]azepine] |
